One data set deals with T1, rat A2A (rA2A) ARs (Rattus norvegicus, UniProt P30543).
T1 construct: rat brain striatal membrane preparations for A2A AR assays; tissue Pel Freez; host or cells: rat brain striatum membranes
The data set can be described thus: Radioligand binding [3H]MSX-2, rat brain striatal membranes. Particulars: read-out: rA2A [3H]MSX-2 Ki ± SEM. The protocol: (§1) The final compounds were tested in radioligand binding assays to evaluate their affinity for all four ARs subtypes (see Table 2). Rat brain cortical membrane preparations were used as a source of rat A1 (rA1) ARs, and rat brain striatal membrane preparations served as a source of rat A2A (rA2A) ARs. For A2B- and A3AR assays, membrane preparations of Chinese hamster ovary (CHO) cells recombinantly expressing either human A2B (hA2B) or human A3 (hA3) ARs were employed.
(§2) Adenosine receptor radioligand binding assays were performed as previously described using rat brain cortical membrane preparations for A1 and rat brain striatal membrane preparations for A2A AR assays. Frozen rat brains (unstripped) were obtained from Pel Freez, Rogers, AR, USA. For assays at human AR subtypes, cell membranes of CHO cells recombinantly expressing the respective receptor were used. The following compounds were employed as radioligands: A1: [^3H]2-chloro-N^6-cyclopentyladenosine ([^3H]CCPA); A2A: [^3H]3-(3-hydroxypropyl)-7-methyl-8-(m-methoxystyryl)-1-propargylxanthine ([^3H]MSX-2); A2B: [^3H]8-(4-(4-(4-chlorophenyl)piperazine-1-sulfonyl)phenyl)-1-propylxanthine ([^3H]PSB-603); A3: [^3H]phenyl-8-ethyl-4-methyl-(8R)-4,5,7,8-tetrahydro-1H-imidazo[2,1-i]purine-5-one ([^3H]PSB-11). Initially, a single high concentration of compound was tested (1 µM). For potent compounds, full concentration–inhibition curves were determined using six to ten different concentrations of test compound spanning three orders of magnitude. At least three independent experiments were performed. Data were analyzed using GraphPad PRISM program version 4.0 or higher (Graph Pad, San Diego, CA, USA).

For the next data set, the target named is T2, human A3 (hA3) ARs (Homo sapiens, UniProt P0DMS8).
T2 construct: expressed in transfected cells; host or cells: CHO cells (membranes)
T2 sequence (P0DMS8 1-318): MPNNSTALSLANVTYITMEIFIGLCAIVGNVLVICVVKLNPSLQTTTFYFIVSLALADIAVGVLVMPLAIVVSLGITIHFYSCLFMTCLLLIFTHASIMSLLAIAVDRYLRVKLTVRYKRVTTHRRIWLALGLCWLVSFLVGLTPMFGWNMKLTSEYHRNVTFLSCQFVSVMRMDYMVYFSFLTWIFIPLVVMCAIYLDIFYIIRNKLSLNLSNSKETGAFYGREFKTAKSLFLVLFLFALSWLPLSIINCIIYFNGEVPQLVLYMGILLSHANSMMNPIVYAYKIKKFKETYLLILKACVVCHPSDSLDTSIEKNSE
Nature of the data set: Radioligand binding [3H]PSB-11, CHO cell membranes. The following applies: for Ki: CHO cell membranes, read-out: hA3 [3H]PSB-11 Ki ± SEM; for inhibition at 1 µM: read-out: hA3 [3H]PSB-11 % inhibition ± SEM at 1 µM. The protocol: as §1, §2

A further data set addresses T3, human PDE4B1 (Homo sapiens, UniProt Q07343).
T3 construct: purchased BPS Biosciences
Nature of the data set: PDElight HTS cAMP phosphodiesterase assay, PDE4B1. It is filed as biochemical. Particulars: for inhibition at 10 µM: read-out: PDE 4B1 % Inhibition ± SEM at 10 µM; for IC50: read-out: PDE 4B1 IC50 ± SEM. The protocol:
Further biological evaluation of the presented compound library was performed determining inhibitory potencies against selected human PDE isoforms, namely, PDE4 and PDE10 (for results see Table 3).
Tested and reference compounds were dissolved in dimethyl sulfoxide (DMSO) at a concentration of 10 mM and further diluted in assay buffer (10 mM Tris-HCl, 10 mM magnesium chloride and 0.05% Tween-20; pH 7.4). Inhibition of human PDE10A and 4B1 was measured using PDElight HTS cAMP phosphodiesterase assay kit (Lonza, Basel, Switzerland) according to manufacturer’s recommendations. Then, 10 ng of PDE10A and 5 ng of PDE4B1 (BPS Biosciences, San Diego, CA, USA) in appropriate buffer was incubated with reference and tested compound for 20 min. […] Then PDELight AMP Detection Reagent was added and incubated 10 min. All reactions were carried out at 37 °C in 96 white-walled, half-area-well plates (PerkinElmer). Luminescence was measured in a multifunction plate reader (POLARstar Omega, BMG Labtech, Ortenberg, Germany). The percentage of inhibition and IC50s were computed using GraphPad Prism Version 6.0 software.

In a further data set the target is T4, rat A1 (rA1) ARs (Rattus norvegicus, UniProt P25099).
T4 construct: using rat brain cortical membrane preparations for A1; tissue Pel Freez; host or cells: rat brain cortex membranes
T4 sequence (P25099 1-326): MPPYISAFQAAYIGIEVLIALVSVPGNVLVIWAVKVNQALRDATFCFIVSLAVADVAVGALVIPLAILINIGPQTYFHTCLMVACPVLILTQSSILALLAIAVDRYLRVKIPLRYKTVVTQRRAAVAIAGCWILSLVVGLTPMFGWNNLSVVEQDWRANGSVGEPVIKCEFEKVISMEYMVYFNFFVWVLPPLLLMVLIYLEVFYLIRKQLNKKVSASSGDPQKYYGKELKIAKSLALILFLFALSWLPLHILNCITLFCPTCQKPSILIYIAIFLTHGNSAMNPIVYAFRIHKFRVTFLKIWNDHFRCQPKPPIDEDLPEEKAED
Nature of the data set: Radioligand binding [3H]CCPA, rat brain cortical membranes. The following applies: read-out: rA1 [3H]CCPA % inhibition ± SEM at 10 µM.

For the next data set, the system named is SH-SY5Y cells. Nature of the data set: Neuroprotection against H2O2-induced toxicity, LDH assay. It is filed as cell-based. The following applies: 300 µM hydrogen peroxide, compounds at 10 or 50 µM. Here is the method:
For neuroprotection studies, a cellular model of neuroblastoma SH-SY5Y cells exposed to hydrogen peroxide was applied. Lactate dehydrogenase (LDH) release was used as a measure of cell death. First, the compounds (11a, 11c, 12, 13, 20a, 21, and 22) were tested for their possible intrinsic neurotoxicity to the SH-SY5Y cell line (see Supplementary Figure S1). […] All other compounds were tested for cytoprotective effects against H2O2-induced toxicity in SH-SY5Y cells.
Neuroblastoma SH-SY5Y cells were seeded at the density of 20,000 cells per well to 96-well plates one day before the experiment. Twelve hours prior to start of the assay, cell culture medium was replaced with the fresh portion of reduced serum (1%) medium. Tested compounds were added to the cells at the final concentration of 10 or 50 µM in 1% DMSO. In the neuroprotection studies, hydrogen peroxide, at a final concertation of 300 µM, was pipetted to the assay plate 1 h after tested compounds addition. Cell death, represented by the release of LDH through the perforated cell membrane, was measured following 14 h incubation of cells with the compounds and hydrogen peroxide. LDH levels in cell culture medium were determined using fluorometric CytoTox-ONE Homogeneous Membrane Integrity Assay (Promega Corporation, Madison, WI, USA), according to manufacturer’s instructions.
Figure 3 The ability of tested compounds to reduce the cytotoxicity of 300 μM hydrogen peroxide (HP) on dopaminergic neuronal cells (SH-SY5Y) as judged by LDH assay. Data represent the mean of two experiments performed in triplicate. Results are presented as percent of cytotoxicity induced by 300 µM hydrogen peroxide (HP) ± SEM. NT–vehicle control (1% DMSO).

SMILES strings stand for the structures.

T1 sequence (P30543 whole entry): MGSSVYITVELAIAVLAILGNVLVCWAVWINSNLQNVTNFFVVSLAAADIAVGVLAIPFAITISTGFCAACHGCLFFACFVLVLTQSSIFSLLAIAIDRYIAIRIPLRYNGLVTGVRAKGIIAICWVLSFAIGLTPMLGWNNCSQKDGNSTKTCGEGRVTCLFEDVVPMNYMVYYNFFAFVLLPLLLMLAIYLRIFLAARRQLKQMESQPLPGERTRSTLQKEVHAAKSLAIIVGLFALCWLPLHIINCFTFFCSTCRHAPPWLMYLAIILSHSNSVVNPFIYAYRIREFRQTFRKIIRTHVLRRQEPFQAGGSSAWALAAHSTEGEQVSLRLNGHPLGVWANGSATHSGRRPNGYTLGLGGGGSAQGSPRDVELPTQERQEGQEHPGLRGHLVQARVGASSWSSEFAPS
T3 sequence (Q07343 whole entry): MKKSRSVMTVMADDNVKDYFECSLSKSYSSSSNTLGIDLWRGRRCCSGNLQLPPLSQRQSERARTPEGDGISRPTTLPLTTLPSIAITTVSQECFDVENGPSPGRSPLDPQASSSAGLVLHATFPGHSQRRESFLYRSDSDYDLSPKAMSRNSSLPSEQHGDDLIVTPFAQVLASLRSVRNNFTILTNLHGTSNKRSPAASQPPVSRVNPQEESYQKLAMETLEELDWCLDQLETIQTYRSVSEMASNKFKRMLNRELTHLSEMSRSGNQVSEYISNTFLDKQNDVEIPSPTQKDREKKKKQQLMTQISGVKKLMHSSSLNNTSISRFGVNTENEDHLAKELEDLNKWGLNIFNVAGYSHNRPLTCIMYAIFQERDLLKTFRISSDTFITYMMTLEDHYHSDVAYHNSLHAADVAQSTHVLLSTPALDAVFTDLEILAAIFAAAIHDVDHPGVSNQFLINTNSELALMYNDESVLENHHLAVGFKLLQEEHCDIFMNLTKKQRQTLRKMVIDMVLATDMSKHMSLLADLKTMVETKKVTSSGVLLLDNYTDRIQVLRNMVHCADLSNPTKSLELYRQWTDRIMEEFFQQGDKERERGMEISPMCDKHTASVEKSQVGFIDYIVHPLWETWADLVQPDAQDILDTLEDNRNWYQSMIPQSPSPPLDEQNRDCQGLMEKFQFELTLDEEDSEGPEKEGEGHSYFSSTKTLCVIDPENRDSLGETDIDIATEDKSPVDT

Turning to `CCCCCCn1c(NCCc2ccc(O)c(O)c2)nc2c1c(=O)n(C)c(=O)n2C` [Compound 11i, 8-((3,4-Dihydroxyphenethyl)amino)-7-hexyl-1,3-dimethyl-3,7-dihydro-1H-purine-2,6-dione], the melting point – broadly, the temperature of the solid-liquid transition – lay within 216 to 218 °C. The Ki (as a rule, a measure of affinity in units of concentration, obtained from inhibition or displacement) at rat A2A (rA2A) ARs is above 10 µM. Also, on human A3 (hA3) ARs, the Ki is above 1 µM and the inhibition (commonly the change of the read-out against control, counted positive when it falls) at 1 µM was found to be 3%. For the same compound, on human PDE4B1, the inhibition at 10 µM was determined as 42% and the half-maximal inhibitory concentration (IC50) (in general, the concentration at which inhibition is half-maximal) is above 10 µM. The inhibition at 10 µM at rat A1 (rA1) ARs stood at 43%.
As for `Cn1c(=O)c2c(nc(NCCc3ccc(O)c(O)c3)n2CCc2ccccc2)n(C)c1=O` [Compound 11k, 8-((3,4-Dihydroxyphenethyl)amino)-1,3-dimethyl-7-phenethyl-3,7-dihydro-1H-purine-2,6-dione], the Ki at rat A2A (rA2A) ARs was at least 10 µM. At human A3 (hA3) ARs, the Ki is above 1 µM and the inhibition at 1 µM was -1%. Also, at human PDE4B1, the IC50 amounted to 4.4 ± 0.54 µM. The inhibition at 10 µM at rat A1 (rA1) ARs was determined as 46%.
`Cn1c(=O)c2c(nc3n2CCCN3CCc2ccc(O)c(O)c2)n(C)c1=O` [Compound 20a, 9-(3,4-Dihydroxyphenethyl)-1,3-dimethyl-6,7,8,9-tetrahydropyrimido[2,1-f]purine-2,4(1H,3H)-dione] returned a melting point of 213 to 215 °C. In addition, the Ki on rat A2A (rA2A) ARs turned out to be 0.507 ± 0.109 µM. For the same compound, on human A3 (hA3) ARs, the Ki is above 1 µM and the inhibition at 1 µM was -6%. On human PDE4B1, the inhibition at 10 µM stood at 44% and the IC50 was above 10 µM. Moreover, the inhibition at 10 µM at rat A1 (rA1) ARs amounted to 43%.
In the case of `CCCn1c(=O)c2c(nc3n2CCCN3CCc2ccc(O)c(O)c2)n(CCC)c1=O` [Compound 21, 9-(3,4-Dihydroxyphenethyl)-1,3-dipropyl-6,7,8,9-tetrahydropyrimido[2,1-f]purine-2,4(1H,3H)-dione], on rat A2A (rA2A) ARs, the Ki was found to be 0.274 ± 0.081 µM. In addition, at human A3 (hA3) ARs, the Ki is above 1 µM and the inhibition at 1 µM was found to be 26%. The IC50 on human PDE4B1 came to 16.5 ± 0.32 µM. For the same compound, in the data set on SH-SY5Y cells, the “cytoprotective effect against H2O2-induced toxicity (LDH release)” value is “most potent” and the “dose dependence of cytoprotective effect” value is on record as “Dose-dependent responses”.
In the case of `CCCCn1c(=O)c2c(nc3n2CCCN3CCc2ccc(O)c(O)c2)n(CCCC)c1=O` [Compound 22, 1,3-Dibutyl-9-(3,4-dihydroxyphenethyl)-6,7,8,9-tetrahydropyrimido[2,1-f]purine-2,4(1H,3H)-dione], on rat A2A (rA2A) ARs, the Ki turned out to be 0.334 ± 0.052 µM. For the same compound, the Ki at human A3 (hA3) ARs worked out at 0.676 ± 0.143 µM. On human PDE4B1, the inhibition at 10 µM came out at 24% and the IC50 is above 10 µM. Besides, the “cytoprotective effect against H2O2-induced toxicity (LDH release)” value in the data set on SH-SY5Y cells was “most potent”.

The record behind these values is PMC10377586 (Biomolecules, 2023).
